Reference: US9308180B2, “Compositions and methods for preparation of poorly water soluble drugs with increased stability” (Abraxis BioScience, LLC, priority 2005, dated 2016)

Legend:
[1] = Rate of dissolution of docetaxel forms in acetonitrile; type: physicochemical; conditions: 5 mg/mL (anhydrous basis)
Protocol: To compare if the different types of docetaxel material had different solubility profiles as a result of their different structures, their solubility rates were compared in the solvent acetonitrile. Acetonitrile was added to a fixed amount of docetaxel from different suppliers to obtain a concentration of 5 mg/mL (anhydrous basis). The rate at which dissolution of the different docetaxels occurred was observed. It was observed that the anhydrous docetaxels (from 2 different suppliers) dissolved completely in less than 1 minute. […] Under these further diluted conditions, the time to dissolve was between 5 and 10 minutes for the hydrated materials. A similar observation was made when using the solvent chloroform.

[2] = Stability of docetaxel forms dissolved in Tween 80; type: physicochemical; conditions: 40 mg/mL (on anhydrous basis) in Tween 80, after a few days
Protocol: It is well known that docetaxel is formulated with Tween 80 as a solubilizer or emulsifier for the commercial product Taxotere. The different docetaxels were dissolved in Tween 80 at a concentration of 40 mg/mL (on anhydrous basis). […] Thus, the anhydrous docetaxel is preferred in the Tween formulation. In addition it may be useful to use a Tween 80 or equivalent surfactant that is anhydrous or very low in water content as the anhydrous form of docetaxel may absorb water to form the hydrated form which could result in precipitation.

Compound	Time to dissolve completely [1]	Sediment or precipitate in Tween 80 solution [2]	Dissolution (observation) [1]
CC(=O)O[C@@]12CO[C@@H]1C[C@H](O)[C@@]1(C)C(=O)[C@H](O)C3=C(C)[C@@H](OC(=O)[C@H](O)[C@@H](NC(=O)OC(C)(C)C)c4ccccc4)C[C@@](O)([C@@H](OC(=O)c4ccccc4)[C@H]21)C3(C)C [anhydrous docetaxel, docetaxel]	less than 1 minute	no precipitate was observed	–
CC(=O)O[C@@]12CO[C@@H]1C[C@H](O)[C@@]1(C)C(=O)[C@H](O)C3=C(C)[C@@H](OC(=O)[C@H](O)[C@@H](NC(=O)OC(C)(C)C)c4ccccc4)C[C@@](O)([C@@H](OC(=O)c4ccccc4)[C@H]21)C3(C)C [partial hydrate, docetaxel hemihydrate]	–	–	did not readily dissolve
